{
  "source": "patent US7070813B2",
  "about": "“Preventative and treatment effects of morinda citrifolia as a colon cancer cell growth inhibitor” (priority 2001, dated 2006)",
  "tested_on": "human colon tumor cell line DLD-1",
  "experiment": "cells",
  "type": "cell-based",
  "conditions": "for Percent Growth (Mean ± SEM, n = 2): 72 h exposure",
  "description": "A colon tumor assay was used to detect changes in cell proliferation based on the ability of viable cells to cause alamarBlue to change from its oxidized state (non-fluorescent, blue) to a reduced (fluorescent, red) form. With the results obtained from the alamarBlue reaction, cell proliferation can be quantified and metabolic activity of viable cells can be examined. MDA-1 (a processed Morinda citrifolia product) was tested for its effect upon the proliferation of human colon tumor cell line (or DLD-1), and at five final assay concentrations from 10% to […] through 2-fold serial dilutions.\nThe MDA-1 test compound, or Morinda citrifolia fruit juice, was used for in vitro anti-tumor studies. The test compound was in liquid form and diluted with phosphate-buffered saline to obtain initial working solutions. […]\nThe human colon tumor cell line of DLD-1 was obtained from American Type Culture Collection (ATCC CCL-221). The culture was used with RPMI 1640, 90%; Fetal Bovine Serum, 10% and supplemented with 1% Antibiotic-Antimycotic and the cells were incubated in an atmosphere containing 5% CO2 at 37 degrees Celsius.\nIn the evaluation of anti-proliferation for test substances, […].\nMean Ftime0=The average of two measured fluorescent intensities of reduced alamarBlue at the time just before exposure of cells to the test substance.\nMean Ftest=The average of two measured fluorescent intensities of alamarBlue after seventy-two hour exposure of cells to the test substance.\nMean Fctrl=The average of two measured fluorescent intensities of alamarBlue after seventy-two hour incubation without the test substance.\nMean Fblank=The average of two measured fluorescent intensities of alamarBlue in medium without cells after seventy-two hour incubation.\nA decrease of fifty percent or more (≧50%) in fluorescent intensity relative to vehicle-treated control indicated significant cell growth inhibition, cytostatic or cytotoxic activity, and a semi-quantitative IC50, TGI and LC50 were then determined by nonlinear regression using GraphPad Prism (GraphPad Software, USA).\nTGI (Total Growth Inhibition): Test compound concentration where the number or mass of treated cells at the end of experiment was equal to that at time0.\nA semi-quantitative determination of IC50, TGI and LC50 was carried out by nonlinear regression analysis using GraphPad Prism (GraphPad Software, USA).",
  "data": [
    {"smiles": "CO[C@@]12[C@H](COC(N)=O)C3=C(C(=O)C(C)=C(N)C3=O)N1C[C@@H]1N[C@@H]12", "note": "[Mitomycin]", "values": [
      {"measurement": "activity of standard reference agent (growth inhibition)", "setting": "DLD-1, at <10 μM", "result": "Significant activity"},
      {"measurement": "Percent Growth (Mean ± SEM, n = 2)", "setting": "DLD-1, concentration 0.001 μM", "result": "95 ± 5"},
      {"measurement": "Percent Growth (Mean ± SEM, n = 2)", "setting": "DLD-1, concentration 0.01 μM", "result": "103 ± 6"},
      {"measurement": "Percent Growth (Mean ± SEM, n = 2)", "setting": "DLD-1, concentration 0.1 μM", "result": "60 ± 7"},
      {"measurement": "Percent Growth (Mean ± SEM, n = 2)", "setting": "DLD-1, concentration 1 μM", "result": "35 ± 4"},
      {"measurement": "Percent Growth (Mean ± SEM, n = 2)", "setting": "DLD-1, concentration 10 μM", "result": "−50 ± 8"},
      {"measurement": "Estimated TGI (Total Growth Inhibition)", "setting": "DLD-1, semi-quantitative, nonlinear regression", "result": 2200, "unit": "nM"},
      {"measurement": "IC50", "setting": "Homo sapiens, DLD-1, semi-quantitative, nonlinear regression, read-out: Estimated IC50 (50% Inhibition Concentration)", "result": 380, "unit": "nM"}
    ]}
  ]
}
